The conditions of series [1]: p<0.05, cited from earlier work.
For series [2] the following is noted: i.v. administration, rats; cited from earlier work.
The conditions of series [3]: cited from earlier work.
For series [4] the following is noted: cited from earlier work. The source holds these as a separate data set.
On the set-up of series [5]: species or system human. Particulars: in vivo.
Details of series [6]: species or system human. Particulars: in vivo. This is another data set of the same source.
The conditions of series [7]: in vivo, po.
[8] abbreviates: 30% lard diet, capsaicin 0.14% of diet.
Where [9] appears, read: cholesterol-free diet, 4 mg per animal daily, relative to controls.
Setting [10] is: diet with 0.2% cholesterol, 4 mg per animal daily.

Where two headings read alike, the source gives them in different places.

On to `COc1cc(CNC(=O)CCCCC=CC(C)C)ccc1O` [capsaicin, 8-methyl-N-vanillyl-6-nonenamide], for which the plasma insulin levels entry in series [1] (OGTT in dogs) is recorded as “elevation”. In addition, the blood glucose levels in series [1] (at 2.5 h in OGTT, n=6, control 6.40+/−0.13) was 4.91 mM. In series [2], the “time to distribution to brain, spinal cord, liver and blood” value was at most 20 min. In series [3] (30% lard diet, capsaicin 0.14% of diet, vs high-fat diet without capsaicin), the serum triglyceride levels result is listed as “significantly lower”. Moreover, in series [3] (setting [8]), the levels of cholesterol entry is recorded as “not affected”, the “levels of free fatty acids” value is on record as “not affected” and the levels of pre-beta-lipoprotein entry was “not affected”. Also, the “weight of perirenal adipose tissue” value in series [3] (high-fat diet rats) is listed as “reduced in a dose-dependent manner”. In series [4] (setting [9]), the HDL-cholesterol result is reported as “increased significantly”, the LDL-cholesterol result is given as “increased significantly”, the VLDL cholesterol result is listed as “decreased significantly” and the total cholesterol result was “increased significantly”. Moreover, the serum triglyceride concentrations result in series [4] (cholesterol-free diet, 4 mg per animal daily) is given as “Neither drug had an effect”. Also, in series [4] (setting [10]), the HDL-cholesterol entry is recorded as “increased” and the VLDL-cholesterol result is reported as “reduced”.

For `COc1cc(CNC(=O)CCCCCCC(C)C)ccc1O` [dihydrocapsaicin], in series [4] (in vivo), the HDL-cholesterol result is reported as “increased significantly”, the VLDL cholesterol entry was “decreased significantly”, the VLDL-cholesterol result is “reduced” and the serum triglyceride concentrations result is “Neither drug had an effect”. In series [4] (in vivo), the triglycerides entry is “decreased significantly”.

Consider “Palmitoyl Ester of Capsaicin USP [palmitoyl-capsaicin USP]”, for which, in series [5], the body weight result is listed as “maintained an average weight”; the “body weight fluctuation over and under average” value was 2-3 pounds. In addition, in series [6], the LDL cholesterol was around 110 mg/dL and the cholesterol level entry is given as “normal level”. Also, the “burning or irritation in the stomach” value in series [7] is listed as “No individual complained of burning or irritation in the stomach”.

Source of the values: US8987328B2, “Esters of capsaicinoids as dietary supplements” (Trinity Laboratories, Inc., priority 2008, dated 2015).
